Results: patent US20230407243A1, “GENETIC PLATFORM TO INVESTIGATE THE FUNCTIONS OF BACTERIAL DRUG EFFLUX PUMPS” (priority 2022, published 2023)
Read-outs that look alike come from different tables or passages of the source.

Legend:
Type in all cases: cell-based, Escherichia coli
[1] = system: E. coli EKO-35; assay: microbe, parasite or virus in culture; conditions: for Fold change of MICs: EKO-35 compared to EKO-35 (reference); for MIC: Escherichia coli, EKO35
Summary of the method: (§1)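 Turbidity (OD600, pre-incubation subtracted) defined growth after 18 h at 37 °C in MHB II. The inoculum was diluted 1/2000 from an OD600 ~1.0 PBS suspension of an overnight LB culture. Compounds were run as duplicate twofold dilutions.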

[2] = system: E. coli ΔtolC; assay: microbe, parasite or virus in culture; conditions: for Minimum inhibitory concentration (MIC), ΔtolC: Table 10, without pore
Summary of the method: as §1

[3] = system: wild-type E. coli K-12 str. BW25113; assay: microbe, parasite or virus in culture; conditions: technical duplicate; for MIC: Escherichia coli, BW25113
Summary of the method: as §1

[4] = system: EKO-35 araC::acrEF; assay: MIC susceptibility profiling, efflux platform; conditions: for Fold change of MICs: EKO-35 araC::acrEF compared to EKO-35
Summary of the method: as §1

[5] = system: EKO-35 araC::emrAB; assay: MIC susceptibility profiling, efflux platform; conditions: for Fold change of MICs: EKO-35 araC::emrAB compared to EKO-35
Summary of the method: as §1

[6] = system: EKO-35 araC::macAB; assay: MIC susceptibility profiling, efflux platform; conditions: for Fold change of MICs: EKO-35 araC::macAB compared to EKO-35
Summary of the method: as §1

[7] = system: wild-type (WT) K-12-Pore; assay: microbe, parasite or virus in culture; conditions: technical duplicate; for MIC: Escherichia coli
Summary of the method: (§2)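 Strains carry the fhuA ΔC/Δ4L pore integrated between glmS and pstS under a constitutive promoter, with pore activity checked by vancomycin susceptibility. Overnight LB cultures were adjusted in PBS pH 7.4 to OD600 ~1.0 and diluted 1/2000 into MHB II. 2-fold compound titrations were read by OD600 after 18 h at 37 °C.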

[8] = system: ΔtolC-Pore; assay: microbe, parasite or virus in culture; conditions: for Minimum inhibitory concentration (MIC), Pore ΔtolC: Table 10, with pore
Summary of the method: as §2

[9] = system: EKO-35-Pore; assay: MIC susceptibility profiling, porinated strain; conditions: for Fold changes of MICs: EKO-35-Pore compared to EKO-35-Pore (reference); for MIC: Escherichia coli
Summary of the method: as §2

[10] = system: EKO-35 araC::acrB Pore; assay: MIC susceptibility profiling, porinated efflux platform; conditions: for Fold changes of MICs: EKO-35 araC::acr-B Pore compared to EKO-35-Pore
Summary of the method: as §2

[11] = system: EKO-35 araC::acrBD408A Pore; assay: as above
Summary of the method: as §2

[12] = system: EKO-35 araC::acrD Pore; assay: as above; conditions: for Fold changes of MICs: EKO-35 araC::acrD Pore compared to EKO-35-Pore
Summary of the method: as §2

[13] = system: EKO-35 araC::acrEF Pore; assay: as above; conditions: for Fold changes of MICs: EKO-35 araC::acrEF Pore compared to EKO-35-Pore
Summary of the method: as §2

[14] = system: EKO-35 araC::emrAB Pore; assay: as above; conditions: for Fold changes of MICs: EKO-35 araC::emrAB Pore compared to EKO-35-Pore
Summary of the method: as §2

[15] = system: EKO-35 araC::emrKY Pore; assay: as above; conditions: for Fold changes of MICs: EKO-35 araC::emrKY Pore compared to EKO-35-Pore
Summary of the method: as §2

[16] = system: EKO-35 araC::macAB Pore; assay: as above; conditions: for Fold changes of MICs: EKO-35 araC::macAB Pore compared to EKO-35-Pore
Summary of the method: as §2

[17] = system: EKO-35 araC::mdtBC Pore; assay: as above; conditions: for Fold changes of MICs: EKO-35 araC::mdtBC Pore compared to EKO-35-Pore
Summary of the method: as §2

[18] = system: EKO-35 araC::mdtEF Pore; assay: as above; conditions: for Fold changes of MICs: EKO-35 araC::mdtEF Pore compared to EKO-35-Pore
Summary of the method: as §2

[19] = system: EKO-35 araC::mexCD Pore; assay: as above; conditions: for Fold changes of MICs: EKO-35 araC::mexCD Pore compared to EKO-35-Pore
Summary of the method: as §2

[20] = Table 13A, non-porinated, technical duplicate
[21] = Table 13B, non-porinated, technical duplicate
[22] = Table 14A, porinated, technical duplicate

O=C(Nc1ccccc1C(=O)Nc1nnc(C(F)(F)F)s1)c1ccccc1Cl [compound 19]
Fold change of MICs [1]: 1 fold
Minimum inhibitory concentration (MIC), EKO-35 ([1]; Table 10, without pore, technical duplicate): 320 µg/mL
Minimum Inhibitory Concentration, EKO-35 [1, 20]: 320 µg/mL
Minimum inhibitory concentration (MIC), ΔtolC ([2]; technical duplicate): 2.5 µg/mL
Minimum Inhibitory Concentration, ΔtolC [2, 20]: 2.5 µg/mL
Minimum inhibitory concentration (MIC), K-12 ([3]; Table 10, without pore): 320 µg/mL
Minimum Inhibitory Concentration, K-12 ([3]; Table 13A, non-porinated): 320 µg/mL
Fold change of MICs [4]: 1 fold
Minimum Inhibitory Concentration, EKO-35 araC::acrEF [4, 20]: 320 µg/mL
Fold change of MICs [5]: 1 fold
Minimum Inhibitory Concentration, EKO-35 araC::emrAB [5, 21]: 320 µg/mL
Fold change of MICs [6]: 1 fold
Minimum Inhibitory Concentration, EKO-35 araC::macAB [6, 21]: 320 µg/mL
Minimum inhibitory concentration (MIC), Pore K-12 ([7]; Table 10, with pore): 320 µg/mL
Minimum inhibitory concentration, K-12 (WT)-Pore ([7]; Table 14A, porinated): 320 µg/mL
Minimum inhibitory concentration (MIC), Pore ΔtolC ([8]; technical duplicate): 0.625 µg/mL
Minimum inhibitory concentration, ΔtolC-Pore [8, 22]: 0.625 µg/mL
Fold changes of MICs [9]: 1 fold
Minimum inhibitory concentration (MIC), Pore EKO-35 ([9]; Table 10, with pore, technical duplicate): 320 µg/mL
Minimum inhibitory concentration, EKO-35-Pore [9, 22]: 320 µg/mL
Fold changes of MICs [10]: 1 fold
Minimum inhibitory concentration, EKO-35 araC::acrB Pore [10, 22]: 320 µg/mL
Minimum inhibitory concentration ([11]; EKO-35 araC::acrBD408A Pore, technical duplicate): 320 µg/mL
Fold changes of MICs [12]: 1 fold
Minimum inhibitory concentration, EKO-35 araC::acrD Pore [12, 22]: 320 µg/mL
Fold changes of MICs [13]: 1 fold
Minimum inhibitory concentration, EKO-35 araC::acrEF Pore [13, 22]: 320 µg/mL
Fold changes of MICs [14]: 1 fold
Minimum inhibitory concentration ([14]; EKO-35 araC::emrAB Pore, technical duplicate): 320 µg/mL
Fold changes of MICs [15]: 1 fold
Minimum inhibitory concentration ([15]; EKO-35 araC::emrKY Pore, technical duplicate): 320 µg/mL
Fold changes of MICs [16]: 1 fold
Minimum inhibitory concentration ([16]; EKO-35 araC::macAB Pore, technical duplicate): 320 µg/mL
Fold changes of MICs [17]: 1 fold
Minimum inhibitory concentration ([17]; EKO-35 araC::mdtBC Pore, technical duplicate): 320 µg/mL
Fold changes of MICs [18]: 1 fold
Minimum inhibitory concentration, EKO-35 araC::mdtEF Pore [18, 22]: 320 µg/mL
Fold changes of MICs [19]: 1 fold
Minimum inhibitory concentration ([19]; EKO-35 araC::mexCD Pore, technical duplicate): 320 µg/mL

COc1cccc2c1C(=O)c1c(O)c3c(c(O)c1C2=O)C[C@@](O)(C(=O)CO)C[C@@H]3O[C@H]1C[C@H](N)[C@H](O)[C@H](C)O1 [doxorubicin]
Fold change of MICs [1]: 1 fold
MIC ([1]; Table 10, without pore, technical duplicate, read-out: Minimum inhibitory concentration (MIC), EKO-35): 1.56 µg/mL
MIC ([1]; Table 13A, non-porinated, technical duplicate, read-out: Minimum Inhibitory Concentration, EKO-35): 1.56 µg/mL
MIC ([2]; Escherichia coli, 18 h, read-out: Minimum Inhibitory Concentration, ΔtolC): 1.56 µg/mL
Minimum inhibitory concentration (MIC), ΔtolC ([2]; technical duplicate): 1.563 µg/mL
MIC ([3]; Table 10, without pore, read-out: Minimum inhibitory concentration (MIC), K-12): 200 µg/mL
MIC ([3]; Table 13A, non-porinated, read-out: Minimum Inhibitory Concentration, K-12): 200 µg/mL
Fold change of MICs [4]: 64 fold
MIC ([4]; Escherichia coli, Table 13A, non-porinated, technical duplicate, read-out: Minimum Inhibitory Concentration, EKO-35 araC::acrEF): 100 µg/mL
Fold change of MICs [5]: 1 fold
MIC ([5]; Escherichia coli, Table 13B, non-porinated, technical duplicate, read-out: Minimum Inhibitory Concentration, EKO-35 araC::emrAB): 1.56 µg/mL
Fold change of MICs [6]: 1 fold
MIC ([6]; Escherichia coli, Table 13B, non-porinated, technical duplicate, read-out: Minimum Inhibitory Concentration, EKO-35 araC::macAB): 1.56 µg/mL
MIC ([7]; Table 10, with pore, read-out: Minimum inhibitory concentration (MIC), Pore K-12): 50 µg/mL
MIC ([7]; Table 14A, porinated, read-out: Minimum inhibitory concentration, K-12 (WT)-Pore): 50 µg/mL
MIC ([8]; Escherichia coli, 18 h, read-out: Minimum inhibitory concentration, ΔtolC-Pore): 0.781 µg/mL
Minimum inhibitory concentration (MIC), Pore ΔtolC ([8]; technical duplicate): 0.781 µg/mL
Fold changes of MICs [9]: 1 fold
MIC ([9]; Table 10, with pore, technical duplicate, read-out: Minimum inhibitory concentration (MIC), Pore EKO-35): 0.781 µg/mL
MIC ([9]; Table 14A, porinated, technical duplicate, read-out: Minimum inhibitory concentration, EKO-35-Pore): 0.781 µg/mL
Fold changes of MICs [10]: 64 fold
Fold changes of MICs ([11]; EKO-35 araC::acrBD408A Pore compared to EKO-35-Pore): 1 fold
MIC ([11]; Escherichia coli, EKO-35 araC::acrBD408A Pore, technical duplicate, read-out: Minimum inhibitory concentration): 0.781 µg/mL
Fold changes of MICs [12]: 1 fold
MIC ([12]; Escherichia coli, Table 14A, porinated, technical duplicate, read-out: Minimum inhibitory concentration, EKO-35 araC::acrD Pore): 0.781 µg/mL
Fold changes of MICs [13]: 16 fold
MIC ([13]; Escherichia coli, Table 14A, porinated, technical duplicate, read-out: Minimum inhibitory concentration, EKO-35 araC::acrEF Pore): 12.5 µg/mL
Fold changes of MICs [14]: 1 fold
MIC ([14]; Escherichia coli, EKO-35 araC::emrAB Pore, technical duplicate, read-out: Minimum inhibitory concentration): 0.781 µg/mL
Fold changes of MICs [15]: 1 fold
MIC ([15]; Escherichia coli, EKO-35 araC::emrKY Pore, technical duplicate, read-out: Minimum inhibitory concentration): 0.781 µg/mL
Fold changes of MICs [16]: 1 fold
MIC ([16]; Escherichia coli, EKO-35 araC::macAB Pore, technical duplicate, read-out: Minimum inhibitory concentration): 0.781 µg/mL
Fold changes of MICs [17]: 4 fold
MIC ([17]; Escherichia coli, EKO-35 araC::mdtBC Pore, technical duplicate, read-out: Minimum inhibitory concentration): 3.12 µg/mL
efflux pump-mediated resistance vs EKO-35-Pore ([17]; MdtBC with the pore): associated with resistance
Fold changes of MICs [18]: 32 fold
MIC ([18]; Escherichia coli, Table 14A, porinated, technical duplicate, read-out: Minimum inhibitory concentration, EKO-35 araC::mdtEF Pore): 25 µg/mL
Fold changes of MICs [19]: 4 fold
MIC ([19]; Escherichia coli, EKO-35 araC::mexCD Pore, technical duplicate, read-out: Minimum inhibitory concentration): 3.12 µg/mL
